Here are results for 23 molecules from patent US20040266766A1, “Selective urokinase inhibitors” (Wilex AG, priority 2001, published 2004).

By pKi is commonly meant −log10 of the Ki, conventionally taken in molar units.

SMILES strings stand for the structures. pKi: −log10 of the molar value. Structures can show the parent of a compound that is named as a salt.

The target of the first experiment is T1, urokinase (uPA) (Homo sapiens, UniProt P00749).
T1 construct: purchased Calbiochem-Novabiochem GmbH, Bad Soden, Germany
Kind of experiment: In vitro inhibition of urokinase (Ki according to Dixon, chromogenic substrate). It is filed as biochemical.
Conditions: not given
As for the experimental part:
In order to determine the inhibitory activity, 200 μl Tris buffer (0.05 mol/l containing the inhibitor, 0.154 mol/l NaCl, pH 8.0), 25 μl substrate (Pefachrome uPA, Pefachrome PL or Pefabloc TH in H2O; Pentapharm Ltd, Basle, Switzerland) and 50 μl urokinase (Calbiochem-Novabiochem GmbH, Bad Soden, Germany) or another appropriate protease e.g. plasmin, thrombin or FXa are incubated for 10 minutes at 30° C. After ca. 30 minutes and 30 cycles the absorption is determined at 405 nm by means of a microplate reader (Mediators PHL, Aureon Biosystems, Vienna, Austria). The Ki values were determined according to Dixon by linear regression using a computer program.
Take `N=C(N)Nc1ccc(CNC(=O)CNC(=O)C(CO)NC(=O)Nc2cccc(Cl)c2)cc1` (stereo not drawn) [WX-C292, 3-Chlorophenyl-aminocarbonyl-(D)-Ser-Gly-(4-guanidinobenzyl)amide hydrochloride]: the “Ki uPA” value is “no inh. *)”.
The same measure, in the same setting: the same measure for `N=C(N)Nc1ccc(CNC(=O)CNC(=O)C(CO)NC(=O)Nc2ccccc2Cl)cc1` (stereo not drawn) [WX-C304, 2-Chlorophenyl-aminocarbonyl-(D)-Ser-Gly-(4-guanidinobenzyl)amide hydrochloride]: “no inh. *)”; for `CC(=O)c1cccc(NC(=O)NC(CO)C(=O)NCC(=O)NCc2ccc(NC(=N)N)cc2)c1` (stereo not drawn) [WX-C314, 3-Acetylphenyl-aminocarbonyl-(D)-Ser-Gly-(4-guanidinobenzyl)amide hydrochloride]: “no inh. *)”.

Still in this experiment, the particulars now being: read-out: Ki uPA.
Consider `N=C(N)Nc1ccc(CNC(=O)CNC(=O)C(CO)NC(=O)Cc2ccc(O)c(O)c2)cc1` (stereo not drawn) [WX-571, 3,4-Dihydroxyphenyl-acetyl-(D)-Ser-Gly-(4-guanidinobenzyl)amide hydrochloride], for which the negative-log Ki (pKi) is 4.83.
On the same count and under the same terms, the result for `N=C(N)Nc1ccc(NNC(=O)CNC(=O)[C@@H](CO)NS(=O)(=O)Cc2ccccc2)cc1` [WX-600, N-[N′-guanidino-phenyl)-hydrazinocarbonyl-methyl]-3-hydroxy-2-phenyl-methanesulfonylamino-propionamide hydrochloride] reads 5.68; that for `CC1(C)C2CCC1(CS(=O)(=O)NC(CO)C(=O)NCC(=O)NCc1ccc(NC(=N)N)cc1)C(=O)C2` (stereo not drawn) [WX-C296, (−)-Camphor-10-sulfonyl-(D)-Ser-Gly-4-guanidinobenzyl)amide hydrochloride], 6.35.
The same measure, in the same setting: the same measure for `CCCCCCCCS(=O)(=O)NC(CO)C(=O)NCC(=O)NCc1ccc(NC(=N)N)cc1` (stereo not drawn) [WX-C302, n-Octyl-sulfonyl-(D)-Ser-Gly-(4-guanidinobenzyl)amide hydrochloride]: 6.30.
On the same count and under the same terms, the result for `COc1ccc(NC(=O)NC(CO)C(=O)NCC(=O)NCc2ccc(NC(=N)N)cc2)cc1` (stereo not drawn) [WX-C306, 4-Methoxyphenyl-aminocarbonyl-(D)-Ser-Gly-(4-guanidinobenzyl)amide hydrochloride] reads 5.39; that for `COc1cc(NC(=O)NC(CO)C(=O)NCC(=O)NCc2ccc(NC(=N)N)cc2)cc(OC)c1OC` (stereo not drawn) [WX-C308, 3,4,5-Tri-methoxyphenyl-aminocarbonyl-(D)-Ser-Gly-(4-guanidinobenzyl)amide hydrochloride], less than 4.70.
Consider `N=C(N)Nc1ccc(CNC(=O)CNC(=O)C(CO)NC(=O)Nc2ccc(Oc3ccccc3)cc2)cc1` (stereo not drawn) [WX-C310, 4-Phenoxyphenyl-aminocarbonyl-(D)-Ser-Gly-(4-guanidinobenzyl)amide hydrochloride], for which the negative logarithm of the Ki (pKi) is 5.70.
The same measure, in the same setting: the result for `CCOC(=O)c1cccc(NC(=O)NC(CO)C(=O)NCC(=O)NCc2ccc(NC(=N)N)cc2)c1` (stereo not drawn) [WX-C312, 3-Ethoxycarbonylphenyl-aminocarbonyl-(D)-Ser-Gly-(4-guanidinobenzyl)amide hydrochloride] reads 5.85; that for `N=C(N)Nc1ccc(CNC(=O)CNC(=O)C(CO)NC(=O)NC23CC4CC(CC(C4)C2)C3)cc1` (stereo not drawn) [WX-C320, 1-Adamantyl-aminocarbonyl-(D)-Ser-Gly-(4-guanidinobenzyl)amide hydrochloride], less than 4.70.
The same measure, in the same setting: the same measure for `N=C(N)Nc1ccc(CNC(=O)CNC(=O)C(CO)NC(=O)Nc2ccccc2Br)cc1` (stereo not drawn) [WX-C322, 2-Bromophenyl-aminocarbonyl-(D)-Ser-Gly-(4-guanidinobenzyl)amide hydrochloride]: less than 4.70; for `N=C(N)Nc1ccc(CNC(=O)CNC(=O)C(CO)NC(=O)Nc2ccc3c(c2)OCCO3)cc1` (stereo not drawn) [WX-C326, 2,3-Dihydro-1,4-benzodioxin-6-yl-aminocarbonyl-(D)-Ser-Gly-(4-guanidinobenzyl)amide hydrochloride]: less than 4.70; for `N=C(N)Nc1ccc(CNC(=O)CNC(=O)C(CO)NC(=O)Nc2cccc3ccccc23)cc1` (stereo not drawn) [WX-C328, 1-Naphthyl-aminocarbonyl-(D)-Ser-Gly-(4-guanidinobenzyl)amide hydrochloride]: less than 4.70.
The same measure, in the same setting: the result for `CC(=O)c1ccc(NC(=O)NC(CO)C(=O)NCC(=O)NCc2ccc(NC(=N)N)cc2)cc1` (stereo not drawn) [WX-C330, 4-Acetylphenyl-aminocarbonyl-(D)-Ser-Gly-(4-guanidinobenzyl)amide hydrochloride] reads less than 4.70.
With `N=C(N)Nc1ccc(CNC(=O)CNC(=O)C(CO)NC(=O)Nc2ccc3c(c2)OCO3)cc1` (stereo not drawn) [WX-C332, 3,4-Methylenedioxyphenyl-aminocarbonyl-(D)-Ser-Gly-(4-guanidinobenzyl)amide hydrochloride], the pKi is less than 4.70.
For the molecule `N=C(N)Nc1ccc(CNC(=O)CNC(=O)C(CO)NC(=O)Nc2cccc(Cl)c2Cl)cc1` (stereo not drawn) [WX-C334, 2,3-Dichlorophenyl-aminocarbonyl-(D)-Ser-Gly-(4-guanidinobenzyl)amide hydrochloride], the negative-log Ki (pKi) is less than 4.70.
Still for that read-out and setting: the same measure for `CCOC(=O)c1ccc(NC(=O)NC(CO)C(=O)NCC(=O)NCc2ccc(NC(=N)N)cc2)cc1` (stereo not drawn) [WX-C336, 4-Ethyloxycarbonylphenyl-aminocarbonyl-(D)-Ser-Gly-(4-guanidinobenzyl)amide hydrochloride]: 4.88; for `N=C(N)Nc1ccc(CNC(=O)CNC(=O)C(CO)NC(=O)Nc2ccc(Br)cc2Br)cc1` (stereo not drawn) [WX-C338, 2,4-Dibromophenyl-aminocarbonyl-(D)-Ser-Gly-(4-guanidinobenzyl)amide hydrochloride]: less than 4.70.
Same read-out and setting: the result for `N=C(N)Nc1ccc(CNC(=O)CNC(=O)C(CO)NC(=O)Nc2ccc([N+](=O)[O-])cc2)cc1` (stereo not drawn) [WX-C342, 4-Nitrophenyl-aminocarbonyl-(D)-Ser-Gly-(4-guanidinobenzyl)amide hydrochloride] reads 5.31.
Still for that read-out and setting: the same measure for `N=C(N)Nc1ccc(CNC(=O)CNC(=O)C(CNC(=O)OCc2ccccc2)NS(=O)(=O)Cc2ccccc2)cc1` (centres unmarked) [WX-M5, benzylsulfonyl-(D)-Dap(Z)-Gly-(4-guanidinobenzyl)amide hydrochloride]: 6.30; for `N=C(N)Nc1ccc(CNC(=O)CNC(=O)C(CN)NS(=O)(=O)Cc2ccccc2)cc1` (stereo not drawn) [WX-M6, Benzylsulfonyl-(D)-Dap-Gly-(4-guanidinobenzyl)amide bis-hydrochloride]: 6.82.
